{
  "source": "patent US20240307397A1",
  "about": "“PHARMACEUTICAL COMPOSITION COMPRISING PI3K AND DNA-PK DUAL INHIBITOR FOR PREVENTING OR TREATING PERIPHERAL T CELL LYMPHOMA” (BORYUNG CORPORATION, priority 2021, published 2024)",
  "key": {"[1]": {"system": "subjects with advanced hematologic malignancies", "experiment": "Phase Ia dose escalation clinical trial: safety, tolerability, DLT and MTD/RP2D", "type": "in vivo", "source_text": "The phase Ia part (dose escalation) of this clinical trial is designed to determine safety, tolerability, and maximum tolerated dose (MTD)/starting dose (RP2D) for clinical phase Ib/II of the test drug in subjects with relapsed/refractory B-cell lymphoma, chronic lymphocytic leukemia (CLL)/small lymphocytic leukemia (SLL) and peripheral T-cell lymphoma (PTCL).\nA method for escalating a dose during the treatment period (phase Ia part) is as follows. At least of 1 and up to 6 subjects may be enrolled in cohorts 1 and 2. 3 to 6 subjects may be enrolled into subsequent cohorts.\n(2) Cohort 3 and all subsequent cohorts will follow the standard 3+3 design. […] If 1 of the 3 subjects experiences a DLT, that dose level will be expanded to 6 subjects (3 additional subjects will be enrolled). If 2 subjects at a given dose level experience a DLT, the maximum tolerated dose (MTD) will have been exceeded and further accrual to the cohort will be terminated. The next lower dose level will be expanded to 6 subjects or if 6 subjects have already been enrolled and no more than 1 of the 6 experienced a DLT, then this lower dose level will be considered the MTD (FIG. 3).\nThe dose limiting toxicity (DLT) in this clinical trial may include the followings:\n1) Assessed by adverse events, vital signs, electrocardiogram (ECG), clinical laboratory tests, physical examination, ECOG performance status up to the last Safety Follow-up Visit, and baseline medical conditions.\n2) Tolerability assessment includes review of dose interruptions, reductions, and doses administered up to the last Safety Follow-up Visit.\n3) Determination of the maximum tolerated dose (MTD) and the starting dose (RP2D) for clinical phase Ib/II are based on dose limiting toxicity (DLT) during Cycle 1.\nThe number and proportion of subjects experiencing the dose limiting toxicity (DLT) are summarized based on the dose-limiting toxicity evaluable set. […] Estimation of maximum tolerated dose (MTD)/recommended dose for clinical phase Ib/II (RP2D) are based upon the methods for determination of MTD/RP2D provided herein (see 3. Overall design, 2) How to escalate dose of test drug).\nA treatment emergent adverse event (TEAE) is defined as any AE that occurs after the first administration of the test drug through 30 days after the last administration of the test drug, or any event that is present at baseline but worsens in severity. […] All the adverse events and toxicities are graded according to CTCAE (version 5.0). Analysis may include, but is not limited to, the followings: […]"}, "[2]": {"system": "advanced hematologic malignancies (PTCL, DLBCL, MZL, CTCL-MF)", "experiment": "Phase Ia clinical trial: tumor response assessment", "type": "in vivo, humans", "description": "1) Tumor response is assessed for both phases la and Ib. The anticancer activity of the test drug is assessed by applying various criteria through imaging tests every two cycles of clinical trials and at the end of therapy (EOT) (optional) (see table 14 for disease assessment criteria below), or for liquid tumors, bone marrow aspirates/biopsies and blood assessments are performed. Tumor response parameters that are assessed include the following: (1) Best overall response: complete response (CR), partial response (PR), stable disease (SD, lasting 12 weeks), or disease progression (DP) Details of the disease assessment criteria and the tools used to determine efficacy parameters are as follows (Table 14). The tumor response (lymphoma (B-cell and T-cell), CLL/SLL, Waldenstrom macroglobulinemia) following administration of the test drug in phases Ia and Ib is assessed using the criteria in table 14. Tumor response parameters vary according to the above applied criteria and may include the followings: The best overall response is defined as the best response across all time points (in the order of CR, PR, SD, and DP) post-treatment. The best overall response (CR, PR, SD, or DP) is summarized by number of subjects and percentages. In the case of best response equal to SD, the minimum duration for SD should be met. For the purpose of calculating an SD rate, the rate will be the percentage (%) of subjects who continue to have SD for at least 12 weeks."}, "[3]": {"system": "CD8+ T cells", "experiment": "Whole blood flow-cytometry pharmacodynamics, CD8+ T cells", "type": "in vivo, humans", "conditions": "as plasma concentration of the test drug increased (FIG. 6B)", "description": "(§1) Blood samples for pharmacodynamic analyses of the test drug were collected in phase Ia (dose escalation part). Whole blood samples were evaluated by flow-cytometry after coimmunostaining for CD3^+, CD4^+, CD25^+, CD127low and CD8^+. Through this, we tried to observe the effects of the test drug on regulatory T cells (Tregs) and CD8^+ T cells."}, "[4]": {"experiment": "Plasma pharmacokinetic analyses in clinical trial subjects (C1D1, C1D15)", "type": "in vivo, humans", "source_text": "1) Plasma concentration-time profile of the test drug (days 1 and 15), urine concentration data (day 15), and derived single dose plasma PK and multiple dose plasma and urine PK parameters (if applicable). • Blood samples are collected according to a predetermined schedule to measure a plasma concentration of the test drug (Table 5). In phase Ia clinical trials, entire urine needs to be collected over each dosing interval according to a pre-determined schedule, starting after dose administration (Table 5).\n• Samples for the determination of the test drug in plasma and urine are analyzed using appropriate validated bioanalytical methods. • Pharmacokinetic parameters are derived using noncompartmental methods with Phoenix® WinNonlin® Version 8.0 or higher (Certara, L.P. Princeton, New Jersey, USA) and/or SAS® Version 9.2 or higher (SAS Institute, Inc., Cary, North Carolina, USA). Actual elapsed time from dosing will be used for the final plasma PK parameter calculations. A minimum of 3 quantifiable postdose concentrations will be required for all calculations. • The PK parameters to be determined for plasma concentration of the test drug on day 1 of cycle 1 and day 15 of cycle 1, if calculable, include but not be limited to the following parameters presented table 6.\nPlasma concentrations and PK parameters of the test drug are listed and summarized by dose, cycle, and clinical trial phase using descriptive statistics.\nOn the day 1 of cycle 1 (C1D1), plasma samples for pharmacokinetic analyses in clinical trial subjects were obtained before and after administration of the test drug (0.5, 1, 1.5, 2, 3, 4, 6, 9, 12 and 24 hours). As a result of the collected pharmacokinetic analyses, it was confirmed that a maximum plasma concentration after a single dose of 50 mg QD, 100 mg QD and 200 mg QD of the test drug ranged […], and a systemic exposure (based on AUC0-24) ranged from 2760 to 21850 ng*h per mL."}, "[5]": {"system": "regulatory T cells (Tregs)", "experiment": "Whole blood flow-cytometry pharmacodynamics, regulatory T cells", "type": "in vivo, humans", "conditions": "as plasma concentration of the test drug increased (FIG. 6A)", "description": "as §1"}, "[6]": {"conditions": "of 11 clinical trial subjects, oral QD"}, "[7]": {"conditions": "11 of 12 subjects enrolled in phase Ia assessed"}, "[8]": {"conditions": "multiple dosing (C1D15), 50 mg to 200 mg cohort"}},
  "data": [
    {"smiles": "C[C@H](Nc1ncnc2[nH]ccc(=O)c12)c1c(Cl)c2cccc(Cl)c2c(=O)n1-c1ccccc1", "note": "[test drug, 4-[[(1S)-1-(4,8-dichloro-1-oxo-2-phenyl-3-isoquinolyl)ethyl]amino]-8H-pyrido[2,3-d]pyrimidin-5-one]", "values": [
      {"measurement": "dose limiting toxicities (DLTs) observed", "setting": "[1]; cohort 4, 325 mg QD", "value": "two"},
      {"measurement": "serious adverse events rated as grades 3 (severe) to 5 (death)", "setting": "[1]; cohorts 1 to 3 (50, 100, 200 mg QD)", "value": "no serious adverse events"},
      {"measurement": "subjects with TEAEs evaluated to be related to the test drug", "setting": "[1]; cohorts 1 to 3 (50, 100, 200 mg QD), 3 of 5 subjects", "value": 60.0, "unit": "%"},
      {"measurement": "subjects with treatment-emergent adverse events (TEAEs)", "setting": "[1]; cohorts 1 to 3 (50, 100, 200 mg QD), 4 out of 5 subjects", "value": 80.0, "unit": "%"},
      {"measurement": "administration-related deaths", "setting": "[1]; cohorts 1 to 3, 5 subjects", "value": "no administration-related deaths occurred"},
      {"measurement": "subjects with TEAE of grade 1 (mild)", "setting": "[1]; cohorts 1 to 3, 5 subjects", "value": 1, "unit": "subject"},
      {"measurement": "subjects with TEAE of grade 2 (moderate)", "setting": "[1]; cohorts 1 to 3, 5 subjects", "value": 2, "unit": "subjects"},
      {"measurement": "subjects with TEAE of grade 4 (life-threatening)", "setting": "[1]; cohorts 1 to 3, 5 subjects, thrombocytopenia, not related to the test drug", "value": 1, "unit": "subject"},
      {"measurement": "dose limiting toxicity (DLT)", "setting": "[1]; dose range of cohorts 1 to 3 (50, 100, 200 mg QD)", "value": "no dose limiting toxicity"},
      {"measurement": "tolerability", "setting": "[1]; dose range up to 200 mg QD", "value": "excellent"},
      {"measurement": "dose limiting toxicity (DLT)", "setting": "[1]; expansion cohort 200 mg QD, 6 subjects", "value": "No dose limiting toxicity"},
      {"measurement": "subjects showing grade 3 skin reaction", "setting": "[1]; [6]", "value": 2, "unit": "subjects"},
      {"measurement": "subjects showing hepatotoxicity", "setting": "[1]; [6]", "value": 3, "unit": "subjects"},
      {"measurement": "maximum tolerated dose (MTD)", "setting": "[1]; oral, 28-day cycle, phase Ia", "value": 200, "unit": "mg QD"},
      {"measurement": "recommended starting dose (RP2D) for clinical phase Ib/II", "setting": "[1]; recommended by the Safety Monitoring Committee", "value": 200, "unit": "mg QD"},
      {"measurement": "outcome of adverse events (skin reaction, hepatotoxicity)", "setting": "[1]; upon discontinuation of the test drug", "value": "manageable and recovered to grade 0 or 1"},
      {"measurement": "complete response (CR)", "setting": "[2]; 8 subjects diagnosed with PTCL", "value": 1, "unit": "subject"},
      {"measurement": "disease control rate (DCR)", "setting": "[2]; 8 subjects diagnosed with PTCL", "value": 87.5, "unit": "%"},
      {"measurement": "disease progression (PD)", "setting": "[2]; 8 subjects diagnosed with PTCL", "value": 1, "unit": "subject"},
      {"measurement": "partial responses (PR)", "setting": "[2]; 8 subjects diagnosed with PTCL", "value": 2, "unit": "subject"},
      {"measurement": "complete response (CR)", "setting": "[2]; [7]", "value": 1, "unit": "subject"},
      {"measurement": "disease progression (PD)", "setting": "[2]; [7]", "value": 2, "unit": "subjects"},
      {"measurement": "partial response (PR)", "setting": "[2]; [7]", "value": 2, "unit": "subjects"},
      {"measurement": "activity in peripheral T-cell lymphoma (PTCL) subjects", "setting": "[2]; PTCL subjects, phase Ia", "value": "preliminary activity"},
      {"measurement": "change of CD8+ T cells compared to the baseline value", "setting": "[3]", "value": "increased"},
      {"measurement": "dose dependence of exposure concentration", "setting": "[4]; C1D1, dose range of 50 mg to 200 mg (FIG. 4)", "value": "increased in a dose-dependent manner"},
      {"measurement": "maximum plasma concentration", "setting": "[4]; C1D1, single dose of 50, 100 and 200 mg QD, plasma", "value": "≤ 2443", "unit": "ng/mL"},
      {"measurement": "increase in exposure based on AUCtau", "setting": "[4]; [8]", "value": "~4.97", "unit": "fold"},
      {"measurement": "increase in exposure based on Cmax", "setting": "[4]; [8]", "value": "~2.92", "unit": "fold"},
      {"measurement": "dose dependence of exposure concentration", "setting": "[4]; multiple dosing (C1D15), dose range of 50 mg to 200 mg (FIG. 5)", "value": "increased in a dose-dependent manner"},
      {"measurement": "accumulation", "setting": "[4]; multiple dosing, dose range of 50 mg to 200 mg", "value": "no accumulation observed"},
      {"measurement": "change of regulatory T cells (Tregs) compared to the baseline value", "setting": "[5]", "value": "decreased"}
    ]}
  ]
}
